Results from patent publication US12570657B2, “Mesylate salts of heterocyclic cytokinins, compositions containing these derivatives and use thereof” (UNIVERZITA PALACKEHO V OLOMOUCI, priority 2020, dated 2026).

Legend:
[1] = system: NIH-3T3; test: In vitro cytotoxicity, Calcein AM assay, NIH-3T3; format: cell-based; details: Mus musculus, NIH3T3, 72 h, 3-day Calcein-AM assay
Description: Because toxic compounds adversely affect cell metabolic processes, many standard cytotoxicity assays are based on measuring the rate of metabolism of various artificial substrates. The resulting product is then quantified, for example, by spectrometry. Assays can be easily modified for use in 96-well plates, A microtiter assay based on the quantification of Calcein AM metabolism was used to evaluate the cytotoxicity of cytokinins, for example meta-topolin, ortho-topolin, kinetin, BAP or its mesylate salts, but also a number of other cytokinin mesylate derivatives according to the invention. The test is widely used in drug screening programs and in chemosensitivity testing. In living cells, Calcein AM is enzymatically hydrolyzed and the accumulation of the resulting calcein is manifested by green fluorescence. The following cell lines—RPMI 8226 (multiple myeloma), CEM (T-lymphoblastic leukemia), K562 (chronic myeloid leukemia), HL-60 (promyelocytic, leukemia), MCF-7 (breast adenocarcinoma), HeLa (cervical cancer), G361 (malignant melanoma), HOS (human osteosarcoma) and BJ (human foreskin fibroblasts)—were obtained from the American Type Culture Collection (Manassas, VA, USA). These cells were maintained in standard DMEM or RPMI medium (Sigma, MO, USA) supplemented with heat-inactivated fetal bovine serum (10%) with 2 mM L-glutamine and penicillin-streptomycin (1%) under standard cell culture conditions (37° C., 5% CO2 in a humid environment) and subcultured two or three times a week using a standard trypsinization procedure. Approximately 10,000 cells in 80 μl of medium were seeded in a 96-well microtiter plate. After 12 hours of incubation, the compounds to be tested were added in 20 μl aliquots. Control cultures were treated with DMSO alone. […] Serial, 3-fold dilutions (six in total, peak concentrations in 166 μM incubations) of each compound were tested. After 72 hours of incubation, Calcein AM solution (Molecular Probes) was added to a final concentration of 1 μg/ml and the cells were incubated for another hour. Free calcein fluorescence was then quantified using a Fluoroscan Ascent fluorometer (Microsystems), and the percentage of surviving cells in each well was calculated by dividing the OD obtained from each cell by the exposed cells by the mean OD obtained from control wells×100%, Finally, IC50 values (concentration causing a 50% decrease in cellular esterase activity) were calculated for each compound generated from dose-response curves (Krys̆tof et al., 2005, Bioorg. Med. Chem. Lett. 12, 3283-3286). The IC50 values reported here are averages obtained from at least three independent experiments, where the individual replication values fell within 20% of the average. […]

[2] = system: cytokinin-dependent tobacco callus; test: Tobacco callus biotest (stimulation of plant cell division); format: cell-based, Nicotiana tabacum L. cv. Wisconsin 38; details: callus growth at concentration with highest activity; 10^−5 M BAP = 100%
Method: Stimulation effect of the cytokinin mesylates was tested in tobacco callus biotest using cytokinin dependent tobacco callus. Cytokinin-dependent tobacco callus Nicotiana tabacum L. cv. […] Subcultivation was carried out every three weeks. Fourteen days before the bioassay, the callus tissue was transferred to the media without BAP. Biological activity was determined from the increase in fresh callus weight after four weeks of cultivation. Five replicates were prepared for each cytokinin concentration and the entire test was repeated twice. […] Relative activity of the compound at this concentration was calculated (Tab. 15). The activity obtained for 10^−5 M 6-benzylaminopurine (BAP) was postulated as 100%. The cytokinin bases to be tested were dissolved in dimethylsulfoxide (DMSO) and the solution brought up to 10^−3 M with distilled water. The mesylate salts were dissolved directly in distilled water.

[3] = system: HOS (human osteosarcoma); test: In vitro cytotoxicity, Calcein AM assay, HOS; format: cell-based; details: Homo sapiens, 72 h, 3-day Calcein-AM assay
Description: (§1) Because toxic compounds adversely affect cell metabolic processes, many standard cytotoxicity assays are based on measuring the rate of metabolism of various artificial substrates. The resulting product is then quantified, for example, by spectrometry. Assays can be easily modified for use in 96-well plates, A microtiter assay based on the quantification of Calcein AM metabolism was used to evaluate the cytotoxicity of cytokinins, for example meta-topolin, ortho-topolin, kinetin, BAP or its mesylate salts, but also a number of other cytokinin mesylate derivatives according to the invention. The test is widely used in drug screening programs and in chemosensitivity testing. In living cells, Calcein AM is enzymatically hydrolyzed and the accumulation of the resulting calcein is manifested by green fluorescence. […] These cells were maintained in standard DMEM or RPMI medium (Sigma, MO, USA) supplemented with heat-inactivated fetal bovine serum (10%) with 2 mM L-glutamine and penicillin-streptomycin (1%) under standard cell culture conditions (37° C., 5% CO2 in a humid environment) and subcultured two or three times a week using a standard trypsinization procedure. Approximately 10,000 cells in 80 μl of medium were seeded in a 96-well microtiter plate. After 12 hours of incubation, the compounds to be tested were added in 20 μl aliquots. Control cultures were treated with DMSO alone. […] After 72 hours of incubation, Calcein AM solution (Molecular Probes) was added to a final concentration of 1 μg/ml and the cells were incubated for another hour.
(§2) Cytoxicity of compounds was tested on panel of cell lines of different histogenetic and species origin.

[4] = system: K562 (chronic myeloid leukemia); test: In vitro cytotoxicity, Calcein AM assay, K-562; format: cell-based; details: Homo sapiens, K562, 72 h, 3-day Calcein-AM assay
Description: as §1, §2

[5] = system: MCF-7 (breast adenocarcinoma); test: In vitro cytotoxicity, Calcein AM assay, MCF7; format: cell-based; details: Homo sapiens, MCF7, 72 h, 3-day Calcein-AM assay
Description: as §1, §2

[6] = system: G361 (malignant melanoma); test: In vitro cytotoxicity, Calcein AM assay, G-361; format: cell-based; details: Homo sapiens, 72 h, 3-day Calcein-AM assay
Description: Because toxic compounds adversely affect cell metabolic processes, many standard cytotoxicity assays are based on measuring the rate of metabolism of various artificial substrates. The resulting product is then quantified, for example, by spectrometry. Assays can be easily modified for use in 96-well plates, A microtiter assay based on the quantification of Calcein AM metabolism was used to evaluate the cytotoxicity of cytokinins, for example meta-topolin, ortho-topolin, kinetin, BAP or its mesylate salts, but also a number of other cytokinin mesylate derivatives according to the invention. The test is widely used in drug screening programs and in chemosensitivity testing. In living cells, Calcein AM is enzymatically hydrolyzed and the accumulation of the resulting calcein is manifested by green fluorescence. The following cell lines—RPMI 8226 (multiple myeloma), CEM (T-lymphoblastic leukemia), K562 (chronic myeloid leukemia), HL-60 (promyelocytic, leukemia), MCF-7 (breast adenocarcinoma), HeLa (cervical cancer), G361 (malignant melanoma), HOS (human osteosarcoma) and BJ (human foreskin fibroblasts)—were obtained from the American Type Culture Collection (Manassas, VA, USA). These cells were maintained in standard DMEM or RPMI medium (Sigma, MO, USA) supplemented with heat-inactivated fetal bovine serum (10%) with 2 mM L-glutamine and penicillin-streptomycin (1%) under standard cell culture conditions (37° C., 5% CO2 in a humid environment) and subcultured two or three times a week using a standard trypsinization procedure. Approximately 10,000 cells in 80 μl of medium were seeded in a 96-well microtiter plate. After 12 hours of incubation, the compounds to be tested were added in 20 μl aliquots. Control cultures were treated with DMSO alone. […] Serial, 3-fold dilutions (six in total, peak concentrations in 166 μM incubations) of each compound were tested. After 72 hours of incubation, Calcein AM solution (Molecular Probes) was added to a final concentration of 1 μg/ml and the cells were incubated for another hour. Free calcein fluorescence was then quantified using a Fluoroscan Ascent fluorometer (Microsystems), and the percentage of surviving cells in each well was calculated by dividing the OD obtained from each cell by the exposed cells by the mean OD obtained from control wells×100%, Finally, IC50 values (concentration causing a 50% decrease in cellular esterase activity) were calculated for each compound generated from dose-response curves (Krys̆tof et al., 2005, Bioorg. Med. Chem. Lett. 12, 3283-3286). The IC50 values reported here are averages obtained from at least three independent experiments, where the individual replication values fell within 20% of the average. Growth inhibition was calculated using the following equation: […](mean FDwell exposed to drug−mean FDblank)/(mean FDcontrol well−mean FDblank)×100%.
as §2

[7] = system: CEM (T-lymphoblastic leukemia); test: In vitro cytotoxicity, Calcein AM assay, CEM; format: cell-based; details: 72 h, 3-day Calcein-AM assay
Description: as §1, §2

[8] = system: HL-60 (promyelocytic, leukemia); test: In vitro cytotoxicity, Calcein AM assay, HL60; format: cell-based; details: Homo sapiens, HL-60, 72 h, 3-day Calcein-AM assay
Description: as §1, §2

SMILES | IC50 [1] [µM] | activity (%) [10^−5 mol · l^−1 BAP = 100%] [2] [%] | IC50 [3] [µM] | IC50 [4] [µM] | IC50 [5] [µM] | IC50 [6] [µM] | IC50 [7] [µM] | IC50 [8] [µM]
Clc1ccccc1CNc1ncnc2nc[nH]c12 [2ClBAP, 6-(2-chlorobenzylamino)purine] | > 167 | 93 | 84.9 | 101 | 164 | 56.6 | 58.4 | 110
Fc1ccccc1CNc1ncnc2nc[nH]c12 [2FBAP, 6-(2-fluorobenzylamino)purine] | – | – | > 167 | 136 | > 167 | 106 | 98 | –
Clc1cccc(CNc2ncnc3nc[nH]c23)c1 [3ClBAP, 6-(3-chlorobenzylamino)purine] | – | 94 | > 167 | – | > 167 | 149 | > 167 | > 167
Fc1cccc(CNc2ncnc3nc[nH]c23)c1 [3FBAP, 6-(3-fluorobenzylamino)purine] | – | – | > 167 | 105 | 163 | > 167 | > 167 | > 167
Fc1ccc(CNc2ncnc3nc[nH]c23)cc1 [4FBAP, 6-(4-fluorobenzylamino)purine] | – | – | > 167 | > 167 | > 167 | > 167 | 66.4 | 59.2
COc1ccc(CNc2ncnc3nc[nH]c23)cc1 [4MeOBAP, 6-(4-methoxybenzylamino)purine] | > 167 | – | > 167 | > 167 | > 167 | ≥ 167 | > 167 | > 167
